The results in this text go back to patent publication US7977365B2 (priority 2006, dated 2011).

For data set [1], the system named is Lassa GP-pseudotyped-virus. The data set is described as follows: microbe, parasite or virus in culture. The settings on record: for EC50: Human immunodeficiency virus 1, read-out: Activity against Lassa GP-pseudotyped-virus EC50. In kind it is cell-based, Lassa fever virus.
The next data set has as its system LASV GP. The experiment in a line: organism not typed. The data set is classed as cell-based. The settings on record: HEK-293T.
For data set [2], the system named is Lassa fever virus (Josiah strain). The experiment in a line: organism not typed. The data set is classed as cell-based. The following applies: read-out: Activity vs. LFV EC50.
Another data set can be described thus: in vitro. The settings on record: human.
In a further data set the test system is Pichinde GP. The experiment in a line: organism not typed. In kind it is cell-based. The following applies: HEK-293T, 72 h, read-out: IC50 ± SEM, Pichinde (wt) GP pseudotype.
Data set [3] has as its system envelope of the New World arenavirus Tacaribe. The data set is described as follows: microbe, parasite or virus in culture. The data set is classed as cell-based. The settings on record: read-out: EC50, Tacaribe envelope pseudotyped viral infection.
A further data set concerns Machupo GP. The data set is described as follows: organism not typed. The data set is classed as cell-based. The settings on record: HEK-293T, 72 h, read-out: IC50 ± SEM, Machupo GP pseudotype.
In the next data set the test system is Junín GP. The data set is described as follows: organism not typed. The data set is classed as cell-based. The settings on record: HEK-293T, 72 h, read-out: IC50 ± SEM, Junín GP pseudotype.
In another data set the test system is unselected TCRV. The data set is classed as cell-based.
In another data set the test system is Sabia GP. The data set is described as follows: organism not typed. The data set is classed as cell-based. The following applies: HEK-293T, 72 h, read-out: IC50 ± SEM, Sabia GP pseudotype.
Data set [4] deals with envelope of the New World arenavirus Guanarito. The experiment in a line: microbe, parasite or virus in culture. The data set is classed as cell-based. The settings on record: read-out: EC50, Guanarito envelope pseudotyped viral infection.
In the next data set the test system is Tacaribe GP. The data set is described as follows: organism not typed. In kind it is cell-based. The settings on record: HEK-293T, 72 h, read-out: IC50 ± SEM, Tacaribe GP pseudotype.
In another data set the test system is Guanarito GP. The data set is described as follows: organism not typed. In kind it is cell-based. The following applies: HEK-293T, 72 h, read-out: IC50 ± SEM, Guanarito GP pseudotype.
The conditions of data set [5]: at 50 μM.
A further data set has as its system LCMV GP. The experiment in a line: organism not typed. The data set is classed as cell-based. The settings on record: HEK-293T, 72 h, read-out: IC50 ± SEM, LCMV (wt) GP pseudotype.
For another data set, the system named is VSVg. The data set is described as follows: microbe, parasite or virus in culture. The data set is classed as cell-based, vesicular stomatitis virus. The settings on record: read-out: IC50 ± SEM, VSV envelope pseudotype.

Like-named read-outs stand apart in the source and are kept apart here. A value given as a limit tells only on which side of the number the result lay.

In the case of `COc1ccccc1-n1cnc2cc(NCc3cccc(OC)c3OC)ccc21` [Compound 600192, (2,3-dimethoxy-benzyl)-[1-(2-methoxy-phenyl)-1H-benzimidazol-5-yl]-amine], in data set [1], the specificity entry was “none” and the EC50 (usually the concentration needed to bring the measured effect to its halfway point) came to 5000 nM.

As to `COc1ccc(-n2cnc3cc(N(Cc4ccc(C(C)C)cc4)C(C)=O)ccc32)cc1` [Compound 600362], in data set [1], the specificity is 40 and the EC50 amounted to 400 nM.

For `COc1ccc(CNc2ccc3c(c2)ncn3-c2ccccc2)cc1` [Compound 600196, (4-methoxy-benzyl)-(1-phenyl-1H-benzimidazol-5-yl)-amine], in data set [1], the specificity is listed as greater than 400 and the EC50 came out at 30 nM.

Regarding `CCOc1ccc(CNc2ccc3c(c2)ncn3-c2ccc(OC)cc2)cc1` [Compound 600147, (4-ethoxy-benzyl)-[1-(4-methoxy-phenyl)-1H-benzimidazol-5-yl]-amine], in data set [1], the specificity is recorded as greater than 4000 and the EC50 worked out at 3 nM.

With `COc1ccc(CNc2ccc3c(c2)ncn3-c2ccc(OC)cc2)cc1` [Compound 600037, (4-methoxy-benzyl)-[1-(4-methoxy-phenyl)-1H-benzimidazol-5-yl]-amine], the half-inhibitory concentration (IC50) (commonly the point on the concentration scale where inhibition reaches its midpoint) in the data set with LASV GP (read-out: average IC50 against LASV GP pseudotypes) was found to be 16 nM. For the same compound, the EC50 in data set [2] is less than 100 nM. Further, in data set [1], the specificity came out at 900 and the EC50 is 16 nM.

As to `Brc1ccc(CNc2ccc3c(c2)ncn3-c2ccccc2)cc1` [Compound 600173, (4-bromo-benzyl)-(1-phenyl-1H-benzimidazol-5-yl)-amine], in data set [1], the specificity is greater than 30 and the half-maximal effective concentration (EC50) came to 400 nM.

In “in vitro”, `COc1ccc(-n2cnc3cc(NCc4ccc(C(C)C)cc4)ccc32)cc1` [Compound 600193, (4-isopropyl-benzyl)-[1-(4-methoxy-phenyl)-1H-benzimidazol-5-yl]-amine] displayed a CC50 of 48000 nM. Also, the concentration for half-maximal inhibition (IC50) with Pichinde GP is 2600 ± 500 nM; in the data set with LASV GP (72 h, read-out: IC50 ± SEM, Lassa (LASV wt) GP pseudotype) it was 1.6 ± 0.3 nM; in the data set with Machupo GP, 2.3 ± 1.3 nM; in the data set with Junín GP, 0.2 ± 0.03 nM; in the data set with Sabia GP, 12 ± 3 nM; in the data set with Tacaribe GP, 4 ± 2 nM. Further, the half-maximal inhibitory concentration (IC50) in the data set with Guanarito GP was 0.34 ± 0.07 nM; in the data set with LCMV GP, 31000 ± 4000 nM; in the data set with VSVg (Vesicular stomatitis virus, HEK-293T), roughly 30000 nM; in the data set on VSVg, 29000 ± 2500 nM. The EC50 in [3] is 4 nM; in [2] it was less than 100 nM; in data set [4] it was less than 1 nM; in [1], 1.1 nM. For the same compound, in the data set on unselected TCRV, the “reduction of TCRV titer” value is on record as 1000 fold. In addition, the specificity in data set [1] was 13,000. The solubility observation result in data set [5] is given as “visual evidence of insolubility”.

Turning to `COc1ccc(-n2cnc3cc(NCc4cccc(OC)c4OC)ccc32)cc1` [Compound 600189, (2,3-dimethoxy-benzyl)-[1-(4-methoxy-phenyl)-1H-benzimidazol-5-yl]-amine], in data set [1], the specificity is 100 and the EC50 came out at 100 nM.

`COc1ccc(-n2cnc3cc(NCc4cccc(OC)c4)ccc32)cc1` [Compound 600191, (3-methoxy-benzyl)-[1-(4-methoxy-phenyl)-1H-benzimidazol-5-yl]-amine]: in [1], the specificity is on record as greater than 300 and the EC50 turned out to be 40 nM.

On to `COc1ccc(-n2cnc3cc(NCc4ccccc4O)ccc32)cc1` [Compound 600153, 2-[[1-(4-methoxy-phenyl)-1H-benzimidazol-5-ylamino]-methyl]-phenol], for which, in [1], the specificity was greater than 60 and the 50% effective concentration (EC50) was 180 nM.

With `COc1ccc(CNc2ccc3c(c2)ncn3-c2ccccc2OC)cc1` [Compound 600190, (4-methoxy-benzyl)-[1-(2-methoxy-phenyl)-1H-benzimidazol-5-yl]-amine], in [1], the specificity is recorded as 3 and the EC50 was determined as 2000 nM.

As to `COc1ccccc1-n1cnc2cc(NCc3ccc(N(C)C)cc3)ccc21` [Compound 600137, (4-dimethylamino-benzyl)-[1-(2-methoxy-phenyl)-1H-benzimidazol-5-yl]-amine], in [1], the half-maximal effective concentration (EC50) was greater than 12000 nM.

For `COc1ccc(-n2cnc3cc(NCc4ccc(Br)cc4)ccc32)cc1` [Compound 600145, (4-bromo-benzyl)-[1-(4-methoxy-phenyl)-1H-benzimidazol-5-yl]-amine], in data set [1], the specificity came out at 300 and the EC50 was found to be 40 nM.

As to `CN(C)c1ccc(CNc2ccc3c(c2)ncn3-c2ccccc2)cc1` [Compound 600144, (4-dimethylamino-benzyl)-[1-phenyl-1H-benzimidazol-5-yl]-amine], in [1], the specificity is greater than 1 and the EC50 worked out at 11000 nM.

With `COc1ccc(-n2cnc3cc(NCc4ccc(Cl)cc4)ccc32)cc1` [Compound 600170, (4-chloro-benzyl)-[1-(4-methoxy-phenyl)-1H-benzimidazol-5-yl]-amine], in [1], the specificity is given as greater than 200 and the EC50 came to 40 nM.

Regarding `COc1ccc(-n2cnc3cc(NCc4ccc(OC)c(OC)c4)ccc32)cc1` [Compound 600172, (3,4-dimethoxy-benzyl)-[1-(4-methoxy-phenyl)-1H-benzimidazol-5-yl]-amine], in [1], the specificity is greater than 10 and the EC50 was determined as 700 nM.

For `COc1ccc(-n2cnc3cc(NCc4ccccc4OC)ccc32)cc1` [Compound 600146, (2-methoxy-benzyl)-[1-(4-methoxy-phenyl)-1H-benzimidazol-5-yl]-amine], in data set [1], the specificity is greater than 40 and the concentration giving a half-maximal response (EC50) stood at 300 nM.

With `CCOc1ccc(CN(c2ccc3c(c2)ncn3-c2ccccc2OC)S(=O)(=O)c2ccc(C)cc2)cc1` [Compound 600179, N-(4-ethoxy-benzyl)-N-[1-(2-methoxy-phenyl)-1H-benzimidazol-5-yl]-4-methylbenzenesulfonamide], in data set [1], the specificity is greater than 100 and the concentration giving a half-maximal response (EC50) turned out to be 110 nM.

Take `COc1ccc(CNc2ccc3c(c2)ncn3-c2ccc(C)cc2)cc1` [Compound 600169, (4-methoxy-benzyl)-(1-p-tolyl-1H-benzimidazol-5-yl)-amine]: in data set [1], the specificity is greater than 500 and the EC50 was 20 nM.

For `COc1ccc(-n2cnc3cc(NCc4ccc(C)cc4)ccc32)cc1` [Compound 600188, [1-(4-methoxy-phenyl)-1H-benzimidazol-5-yl]-(4-methyl-benzyl)-amine], in [1], the specificity is reported as greater than 4000 and the half-maximal effective concentration (EC50) was 3 nM.

On to `COc1ccc(-n2cnc3cc(N(Cc4ccc(C(C)C)cc4)S(=O)(=O)c4ccc(C)cc4)ccc32)cc1` [Compound 600363, N-(4-isopropyl-benzyl)-N-[1-(4-methoxy-phenyl)-1H-benzimidazol-5-yl]-4-methylbenzenesulfonamide], for which, in [1], the specificity is listed as 100 and the half-maximal effective concentration (EC50) came to 200 nM.

Take `COc1ccc(-n2cnc3cc(NCc4cccc5ccccc45)ccc32)cc1` [Compound 600149, [1-(4-methoxy-phenyl)-1H-benzimidazol-5-yl]-napthalen-1-ylmethyl-amine]: in data set [1], the specificity was greater than 200 and the 50% effective concentration (EC50) amounted to 60 nM.
